Data set [1] relates to MDA-MB-231 cells. Description: Cytotoxicity, MTT assay before irradiation. In kind it is cell-based, human. The settings on record: MDA-MB-231, 24 h treatment. As to the method:
(§1) The cytotoxicity of Na[o-FESAN] in breast cancer cells was evaluated to help the selection of the work concentrations for the uptake and irradiation studies. Moreover, the general requirements of therapeutic drugs include, among others, low cytotoxicity and high tumor uptake.
(§2) Before the irradiation studies, the concentrations of Na[o-FESAN] were selected. SKBR-3 and MDA-MB-231 cells were counted with a Neubauer chamber using Trypan Blue exclusion and a Zeiss Primovert microscope, seeded in 96-well plates (1–2 × 10^4 cells/200 µL medium) and incubated at 37 °C for 24 h to adhere. Then, the medium was discarded, and cells were incubated with Na[o-FESAN] at serial concentrations in complete medium in the range 1–300 µM for 24 h. After incubation, the cellular viability was determined using the MTT assay as previously described.

The test system of data set [2] is SKBR-3 cells. Description: Cytotoxicity, MTT assay before irradiation. The note with it: SKBR-3, 24 h treatment. The class given is cell-based, human. The protocol: as §1, §2
A general note: Tetrazolium dyes change colour on reduction, which living cells bring about.

Data set [3] relates to MDA-MB-231 xenograft-bearing nude mice. Description: Biodistribution (boron by ICP-OES) in MDA-MB-231 xenograft model. In kind it is in vivo, mouse. The note with it: 7.5 mg B/kg i.v., 1 and 4 h post-injection. As to the method: The biodistribution of Na[o-FESAN] (7.5 mg B/kg, i.v.) was evaluated in an MDA-MB-231 breast cancer xenograft model, and the results at 1 and 4 h are shown in Figure 2.
All animal experiments were approved by the Animal Care and Use Committee of the Institute of Science Tokyo and performed in accordance with the Guidelines for the Care and Use of Laboratory Animals as stated by the Institute of Science Tokyo (Approval number “D2021007”). All animals were maintained under controlled conditions of temperature and humidity with ad libitum water and feeding. MDA-MB-231 tumor-bearing mice (Balb/cSlc-nu/nu, female, 5–6 weeks old, 14–20 g, Sankyo Labo Service Co., Ltd., Hamamatsu, Japan) were prepared by injecting subcutaneously (s.c.) a suspension of MDA-MB-231 cells (8.0 × 10^5 cells/mouse) directly into the right thigh. The mice were kept on a regular chow diet and water, and maintained under a 12 h light/dark cycle in an ambient atmosphere. When the tumor diameter became 5 to 7 mm, the mice were injected via the tail vein with 200 µL PBS solution of Na[o-FESAN] (7.5 mg B/kg). […] After filtering through a hydrophobic filter, boron concentration was measured by inductively coupled plasma optical emission spectroscopy (ICP-OES) using an iCAP 7400 Duo elemental analyzer (Thermo Fisher Scientific Inc., Waltham, MA, USA).

Data set [4] relates to MDA-MB-231 cells. Description: Viability and proliferation after thermal neutron irradiation (BNCT). The class given is cell-based, human. As to the method: (§3) For neutron irradiation, SKBR-3 and MDA-MB-231 cells were incubated with Na[o-FESAN] at 50 and 100 µM and were irradiated with thermal neutrons at the Triga Mark II nuclear reactor at the University of Pavia. […] Both surviving SKBR-3 and MDA-MB-231 cells that were treated with Na[o-FESAN] […] This clearly indicates the important contribution of neutron capture to induce a long-term cytotoxic effect. Another important point is that the toxic effect was observed using Na[o-FESAN] containing natural B. In fact, the amount of internalized B measured by ICP-MS after 24 h incubation with 50 or 100 µM Na[o-FESAN] contained only 19.9% of the active ^10B isotope. Assuming that in the case of epithelial tumors (with a diameter ranging from 15–20 µm), a density of ca. 10^8 cells for cm^3 is a reasonable number, [76] from the data obtained by ICP-MS analysis, it was possible to calculate the amount of ^10B internalized in cells expressed in ppm (µg/g).
(§4) SKBR-3 and MDA-MB-231 cells were seeded in 25 cm^2 flasks (12 flasks for each cell line) at a density of 6.5 × 10^5 cells. […]
(§5) Twenty-four hours after irradiation, cells were detached with 0.05% trypsin and 0.02% EDTA, and cell viability was evaluated using the trypan blue exclusion test and reported as the percentage of cells observed in treated and/or irradiated samples with respect to that observed in control cells. […] The cell growth was followed for 10 days, and at pre-determined times, the cells were washed with PBS, detached with 0.05% trypsin and 0.02% EDTA, and transferred into falcon tubes. Then, cells were sonicated for 30 s at 30% power in ice, and the total cell protein concentration (that is, proportional to the number of cells) from cell lysates was determined by the Bradford method, using bovine serum albumin as a standard. The cell growth rate was calculated as follows: [(number of cells(ti) − number of cells(t0))/number of cells(t0)] × 100 where (ti) is the number of cells measured at the various time intervals and (t0) is the number of cells at the starting point (t = 0) of the proliferation assay.

Data set [5] has as its system SKBR-3 cells. The data set is described as above. The class given is cell-based, human. The settings on record: SKBR-3, 50 and 100 µM, 24 h, thermal neutrons 15 min at 30 kW, growth followed 10 days. The protocol:
as §3, §4, §5

Data set [6] concerns MDA-MB-231 cells. Description: Intracellular ROS (H2DCF-DA) after proton irradiation. The class given is cell-based, human. The settings on record: MDA-MB-231, 50 and 100 µM, 24 h, protons 0.235 Gy, up to 48 h post-irradiation. As to the method: (§6) In non-irradiated cells (with/without treatment), no appreciable ROS formation was observed.
(§7) Intracellular ROS levels were measured using the 2′,7′-dichlorodihydrofluorescein diacetate (H2DCF-DA) fluorescent probe as previously described. […] Then, the probe (10 µM) in colorless DMEM medium (FluoroBrite™ DMEM, Gibco®, Waltham, MA, USA) was incubated with the cells for an additional 30 min. at 37 °C. Later, the medium was removed and replaced by a fresh one. The fluorescence intensity was continuously measured up to 48 h with a Varioskan LUX scanning multimode reader (Thermo Fisher Scientific, Waltham, MA, USA). Results of fluorescence (mean ± SD) were expressed as the fold change in fluorescence levels compared with controls (non-irradiated treated cells).

The subject of data set [7] is SKBR-3 cells. Described as above. In kind it is cell-based, human. The note with it: SKBR-3, 50 and 100 µM, 24 h, protons 0.235 Gy, up to 48 h post-irradiation. As to the method:
as §6, §7

Data set [8] relates to MDA-MB-231 cells. The data set is described as follows: Morphological analysis by TEM. In kind it is cell-based, human. The note with it: MDA-MB-231, 50 µM, 24 h. As to the method:
Transmission electron microscopy (TEM) was used to assess the structural integrity of MDA-MB-231 cells and to examine the effects at the organelle level before and 2 h after irradiation with proton beams (2.0 MeV).
MDA-MB-231 cells were seeded into 6-well plates at approx. 70% confluence. After 24 h, cells were treated with Na[o-FESAN] at 50 µM for 24 h. After incubation, cells were irradiated with a proton beam as described above and processed for TEM analysis 2 h later, following a previously described method. Briefly, the preparation of the cells included several steps of fixation: primary fixation with 3% glutaraldehyde in 0.1 M sodium cacodylate buffer, pH 7.3; secondary fixation with 1% osmium tetroxide in 0.1 M sodium cacodylate buffer, pH 7.3 for 3 h; tertiary fixation and contrasting with 0.5% uranyl acetate in the same buffer for 1 h, dehydration with ethanol and resin (Epon-Araldite) (Merck, Darmstadt, Germany) infiltration and embedding. The stained cells were then photographed and studied using a JEOL 100-SX electron microscope JEOL, Tokyo, Japan.

On the set-up of data set [9]: method as in PMID 24737689, PMID 35470838. The note with it: cited from earlier work.
Details of data set [10]: method as in PMID 36373493. The settings on record: cited from earlier work.

Consider [3,3′-Fe(1,2-C2B9H11)2]^− [Na[o-FESAN]], for which the half-inhibitory concentration (IC50) (commonly the concentration at which inhibition is half-maximal) was 103 ± 24.9 µM in data set [1] and 83.5 ± 18.6 µM in data set [2]. Moreover, the “Clearance in blood and main organs (heart, liver, lung, kidney, spleen, muscle)” value in data set [3] is given as “slow”. In addition, the Tumor uptake entry in data set [3] is reported as “remained relatively high”. Moreover, the “Proliferation of surviving cells after neutron irradiation” value was “marked inhibition of proliferation” in data set [4] (MDA-MB-231, 50 and 100 µM, 24 h, thermal neutrons 15 min at 30 kW, growth followed 10 days); “marked inhibition of proliferation” in data set [5]. Besides, the “Number of viable cells after treatment and neutron irradiation vs non-treated irradiated cells” value in data set [4] (MDA-MB-231, 24 h post irradiation, trypan blue) is on record as “significantly different”. The “ROS levels after proton irradiation vs non-irradiated controls” value in [6] and in data set [7] was “increased ROS levels in a dose-dependent manner” each time. Moreover, in data set [8], the “Cell morphology (TEM), no irradiation” value is given as “moderate amount of vacuolization”. Also, the “Cell morphology (TEM), 2 h after proton irradiation” value in data set [8] (proton beam 2.0 MeV) is listed as “necrosis”. For the same substance, in data set [9], the Solubility in water result is recorded as “approx. 1 M”. Also, the “Stability in cellular medium” value in [10] is recorded as “did not suffer degradation”.
